The text below walks through data of publication PMC8427694, “The Herbal Compound Thymol Targets Multiple Salmonella Typhimurium Virulence Factors for Lon Protease Degradation” (Frontiers in Pharmacology, 2021).

Structures are written as SMILES.

Holding throughout (assay type): cell-based
Test [1] concerns the target T1, GST-SipA27-270 (Salmonella enterica, UniProt E1WAC6).
T1 construct: gene sipA
Kind of test: click chemistry labelling, in-gel fluorescence. As to conditions: covalent (suggested; survives SDS and 100 °C); labelled compound; compound added to E. coli culture during expression, 20 °C, 16 h; possibly a cellular derivative binds.

Test [2] deals with T2, GST-SipA497-669 (Salmonella enterica, UniProt E1WAC6).
T2 construct: gene sipA; residues 497-669 (actin nucleation domain), N-terminal GST (pGEX-6p-1) kept, expressed in E. coli BL21(DE3), glutathione-Sepharose purified
T2 sequence (E1WAC6 497-669 limits assumed): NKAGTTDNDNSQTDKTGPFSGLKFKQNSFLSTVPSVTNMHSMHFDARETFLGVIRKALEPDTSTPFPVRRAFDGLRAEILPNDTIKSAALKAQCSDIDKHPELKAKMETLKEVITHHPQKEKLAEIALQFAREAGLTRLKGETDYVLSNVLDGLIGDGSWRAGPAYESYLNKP
In words: click chemistry labelling, in-gel fluorescence. As to conditions: covalent (suggested; survives SDS and 100 °C); labelled compound; compound added to E. coli culture during expression, 20 °C, 16 h; possibly a cellular derivative binds.

For test [3], the target named is T2, GST-SipA497-669. In words: circular dichroism of purified protein from thymol-exposed cells. The following applies: thymol present in E. coli culture during expression; protein 7.3 uM in PBS, 25 °C. A general note: Circular dichroism is the unequal absorption of left and right circularly polarised light.
Test [4] addresses T1, GST-SipA27-270. The description is as above. As to conditions: thymol present in E. coli culture during expression; protein 7.9 uM in PBS, 25 °C.

T1 sequence (E1WAC6 27-270): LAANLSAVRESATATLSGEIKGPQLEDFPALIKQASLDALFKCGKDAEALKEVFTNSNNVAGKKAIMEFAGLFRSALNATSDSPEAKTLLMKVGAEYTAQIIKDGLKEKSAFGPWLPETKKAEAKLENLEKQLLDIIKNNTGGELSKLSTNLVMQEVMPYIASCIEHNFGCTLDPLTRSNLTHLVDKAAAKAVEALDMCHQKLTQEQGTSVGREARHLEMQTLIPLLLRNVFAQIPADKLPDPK

For `C#CCOc1cc(C)ccc1C(C)C` [alkyne-thymol], the “click chemistry labelling, in-gel fluorescence” value at GST-SipA27-270 [1] and at GST-SipA497-669 [2] was “Fluorescence signals were detected only in samples receiving alkyne-thymol” throughout.

In the case of `Cc1ccc(C(C)C)c(O)c1` [thymol], the “circular dichroism of purified protein from thymol-exposed cells” value at GST-SipA497-669 [3] and at GST-SipA27-270 [4] was “proteins purified from cells treated with thymol exhibited significant changes in their CD spectra” throughout.
